Drawing on patent publication US8188133B2, “Imidazole derivatives, preparation and user thereof as medicine” (Ipsen Pharma S.A.S., priority 2006, dated 2012), this text covers melting point for eleven molecules.

Molecules are shown by their SMILES.

One may read the melting point as the temperature, or range, at which the solid turns liquid.

In the case of `N#CN=C(N)Nc1ccc(Oc2ccc(-c3c[nH]c(COc4ccccc4)n3)cc2)cc1F` [Example 12, N″-cyano-N-(2-fluoro-4-{4-[2-(phenoxymethyl)-1H-imidazol-4-yl]phenoxy}phenyl)guanidine], the melting point was in the range of 139 to 141 °C.
In turn, `CCNC(=S)Nc1ccc(Oc2ccc(-c3c[nH]c(COc4ccccc4)n3)cc2)cc1F` [Example 5, N-ethyl-N′-(2-fluoro-4-{4-[2-(phenoxymethyl)-1H-imidazol-4-yl]phenoxy}phenyl)thiourea] displayed a melting point of 105 to 107 °C.
For `NC(=O)Nc1ccc(Oc2ccc(-c3c[nH]c(COc4ccccc4)n3)cc2)cc1` [Example 3, N-(4-{4-[2-(phenoxymethyl)-1H-imidazol-4-yl]phenoxy}phenyl)urea], the melting point fell in the range of 200 to 202 °C.
In turn, `CC(C)NC(=O)Nc1ccc(Oc2ccc(-c3c[nH]c(COc4ccccc4)n3)cc2)cc1` [Example 7, N-isopropyl-N′-(4-{4-[2-(phenoxymethyl)-1H-imidazol-4-yl]phenoxy}phenyl)urea] gave a melting point of 184 to 186 °C.
As to `O=C(Nc1ccccc1)Nc1ccc(Oc2ccc(-c3c[nH]c(COc4ccccc4)n3)cc2)cc1` [Example 8, N-(4-{4-[2-(phenoxymethyl)-1H-imidazol-4-yl]phenoxy}phenyl)-N′-phenylurea], the melting point is 146 to 148 °C.
In the case of `Cc1ccc(NC(=O)Nc2ccc(Oc3ccc(-c4c[nH]c(COc5ccccc5)n4)cc3)cc2)cc1` [Example 1, N-(4-methylphenyl)-N′-(4-{4-[2-(phenoxymethyl)-1H-imidazol-4-yl]phenoxy}phenyl)urea], the melting point is 192 to 194 °C.
For the molecule `CCNC(=S)Nc1ccc(Oc2ccc(-c3c[nH]c(COc4ccccc4)n3)cc2)cc1` [Example 4, N-ethyl-N′-(4-{4-[2-(phenoxymethyl)-1H-imidazol-4-yl]phenoxy}phenyl)thiourea], the melting point is 178 to 180 °C.
In turn, `CCCCNC(=O)Nc1ccc(Oc2ccc(-c3c[nH]c(COc4ccccc4)n3)cc2)cc1.O=C(O)C(F)(F)F` showed a melting point of 85 to 87 °C.
Turning to `Cl.NS(=O)(=O)Nc1ccc(Oc2ccc(-c3c[nH]c(COc4ccccc4)n3)cc2)cc1F`, the melting point lay within 185 to 187 °C.
In the case of `NC(=S)Nc1ccc(Oc2ccc(-c3c[nH]c(COc4ccccc4)n3)cc2)cc1F` [Example 6, N-(2-fluoro-4-{4-[2-(phenoxymethyl)-1H-imidazol-4-yl]phenoxy}phenyl)thiourea], the melting point is 171 to 173 °C.
The molecule `NC(=N[N+](=O)[O-])Nc1ccc(Oc2ccc(-c3c[nH]c(COc4ccccc4)n3)cc2)cc1F` [Example 13, N-(2-fluoro-4-{4-[2-(phenoxymethyl)-1H-imidazol-4-yl]phenoxy}phenyl)-N″-nitroguanidine] had a melting point of 193 to 195 °C.
